# Reference: ChEMBL document CHEMBL4396870, “Pharmacological Chaperones for the Treatment of α-Mannosidosis” (J Med Chem, 2019)
# Calls of active or inactive are those of the source. No cut-off for these calls is given here.
# Key:
# [1] = test system: Saccharomyces cerevisiae; assay: Inhibition of yeast isomaltase assessed as residual hydrolytic activity up to 2 mM after 10 to 30 mins by spectrophotometric analysis
# [2] = molecular target: Beta-galactosidase (Escherichia coli) (UniProt Q8VNN2); assay: Inhibition of Escherichia coli beta-galactosidase assessed as residual hydrolytic activity up to 2 mM after 10 to 30 mins by spectrophotometric analysis
# Sequence of Beta-galactosidase (Escherichia coli) (Q8VNN2 whole entry, looked up): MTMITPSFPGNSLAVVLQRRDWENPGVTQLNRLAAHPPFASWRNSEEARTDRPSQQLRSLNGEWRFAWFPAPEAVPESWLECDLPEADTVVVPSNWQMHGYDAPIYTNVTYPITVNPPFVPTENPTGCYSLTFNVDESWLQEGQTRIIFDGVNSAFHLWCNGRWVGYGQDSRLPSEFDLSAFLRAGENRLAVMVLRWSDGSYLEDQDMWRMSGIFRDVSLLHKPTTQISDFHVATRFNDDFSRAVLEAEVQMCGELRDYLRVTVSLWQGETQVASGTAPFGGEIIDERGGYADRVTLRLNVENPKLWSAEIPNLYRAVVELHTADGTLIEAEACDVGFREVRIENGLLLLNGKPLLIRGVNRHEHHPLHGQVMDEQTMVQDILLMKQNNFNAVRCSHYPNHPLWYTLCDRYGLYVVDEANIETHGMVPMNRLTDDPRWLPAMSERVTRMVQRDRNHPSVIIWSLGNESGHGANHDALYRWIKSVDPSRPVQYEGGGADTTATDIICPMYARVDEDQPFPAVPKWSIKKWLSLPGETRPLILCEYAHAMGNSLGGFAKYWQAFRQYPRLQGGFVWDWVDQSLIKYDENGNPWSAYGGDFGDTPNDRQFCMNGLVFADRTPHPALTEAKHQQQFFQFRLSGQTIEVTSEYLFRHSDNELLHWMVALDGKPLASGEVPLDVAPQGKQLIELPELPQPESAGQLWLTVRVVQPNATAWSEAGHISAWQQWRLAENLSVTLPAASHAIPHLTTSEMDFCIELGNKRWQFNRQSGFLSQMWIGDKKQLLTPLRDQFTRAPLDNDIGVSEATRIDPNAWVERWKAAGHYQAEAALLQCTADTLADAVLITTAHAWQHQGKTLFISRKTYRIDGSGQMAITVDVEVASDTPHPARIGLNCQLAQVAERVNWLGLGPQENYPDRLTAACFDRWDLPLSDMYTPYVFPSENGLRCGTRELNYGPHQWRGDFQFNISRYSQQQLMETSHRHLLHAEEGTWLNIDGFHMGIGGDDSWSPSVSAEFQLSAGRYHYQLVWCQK
# [3] = Solubility in glycin-NaOH buffer at pH 10.7; assay type: physicochemical
# [4] = Inhibition of bovine liver beta-glucosidase assessed as residual hydrolytic activity after 10 to 30 mins by spectrophotometric analysis; parameters: species or system Bos taurus
# [5] = molecular target: T1, Lysosomal alpha-mannosidase (Homo sapiens, UniProt O00754); assay: Inhibition of Lysosomal alpha-mannosidase in wild-type human fibroblast cell lysates using 4-methylumbelliferone alpha-D-mannopyranoside as a reporter substrate incubated for 60 mins by fluorescence method; assay type: subcellular, Lysate
# T1 sequence (O00754 whole entry): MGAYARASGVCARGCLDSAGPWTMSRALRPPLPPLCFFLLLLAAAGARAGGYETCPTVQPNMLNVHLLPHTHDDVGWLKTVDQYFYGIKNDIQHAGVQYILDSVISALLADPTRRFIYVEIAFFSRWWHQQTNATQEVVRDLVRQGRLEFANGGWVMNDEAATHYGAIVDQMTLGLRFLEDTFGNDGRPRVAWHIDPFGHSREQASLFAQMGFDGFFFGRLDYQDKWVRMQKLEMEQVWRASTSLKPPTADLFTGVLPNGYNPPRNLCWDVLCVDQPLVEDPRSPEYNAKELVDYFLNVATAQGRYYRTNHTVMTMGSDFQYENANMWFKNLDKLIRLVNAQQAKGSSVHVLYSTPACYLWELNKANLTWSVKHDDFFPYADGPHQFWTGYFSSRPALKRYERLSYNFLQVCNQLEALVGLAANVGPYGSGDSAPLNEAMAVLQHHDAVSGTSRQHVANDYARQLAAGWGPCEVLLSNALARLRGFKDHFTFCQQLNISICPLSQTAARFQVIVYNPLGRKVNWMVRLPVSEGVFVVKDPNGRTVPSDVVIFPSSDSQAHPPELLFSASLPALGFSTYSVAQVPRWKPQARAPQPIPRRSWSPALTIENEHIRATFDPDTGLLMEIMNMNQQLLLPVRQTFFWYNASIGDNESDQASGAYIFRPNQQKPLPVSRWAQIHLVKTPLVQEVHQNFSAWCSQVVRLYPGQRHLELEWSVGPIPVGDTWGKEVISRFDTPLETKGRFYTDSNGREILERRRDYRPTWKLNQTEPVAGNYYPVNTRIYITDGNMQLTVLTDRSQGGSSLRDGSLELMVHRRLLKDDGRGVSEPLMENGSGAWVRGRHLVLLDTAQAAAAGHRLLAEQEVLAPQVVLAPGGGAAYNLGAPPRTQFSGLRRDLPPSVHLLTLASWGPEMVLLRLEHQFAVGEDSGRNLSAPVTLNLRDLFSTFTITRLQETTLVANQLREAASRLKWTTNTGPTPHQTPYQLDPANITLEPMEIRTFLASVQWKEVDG
# [6] = molecular target: T2, Lysosomal alpha-mannosidase (Homo sapiens) (UniProt O00754); assay: Chaperone activity at Lysosomal alpha-mannosidase in wild-type human fibroblasts assessed as increase in Lysosomal alpha-mannosidase activity using 4-methylumbelliferone alpha-D-mannopyranoside as a reporter substrate incubated for 4 days by fluorescence method
# T2 sequence (whole entry): T1 sequence (O00754 whole entry)
# [7] = molecular target: T3, Alpha-mannosidase (Canavalia ensiformis, UniProt C0HJB3); assay: Inhibition of jack bean Lysosomal alpha-mannosidase assessed as residual hydrolytic activity after 10 to 30 mins by spectrophotometric analysis
# T3 sequence (C0HJB3 whole entry): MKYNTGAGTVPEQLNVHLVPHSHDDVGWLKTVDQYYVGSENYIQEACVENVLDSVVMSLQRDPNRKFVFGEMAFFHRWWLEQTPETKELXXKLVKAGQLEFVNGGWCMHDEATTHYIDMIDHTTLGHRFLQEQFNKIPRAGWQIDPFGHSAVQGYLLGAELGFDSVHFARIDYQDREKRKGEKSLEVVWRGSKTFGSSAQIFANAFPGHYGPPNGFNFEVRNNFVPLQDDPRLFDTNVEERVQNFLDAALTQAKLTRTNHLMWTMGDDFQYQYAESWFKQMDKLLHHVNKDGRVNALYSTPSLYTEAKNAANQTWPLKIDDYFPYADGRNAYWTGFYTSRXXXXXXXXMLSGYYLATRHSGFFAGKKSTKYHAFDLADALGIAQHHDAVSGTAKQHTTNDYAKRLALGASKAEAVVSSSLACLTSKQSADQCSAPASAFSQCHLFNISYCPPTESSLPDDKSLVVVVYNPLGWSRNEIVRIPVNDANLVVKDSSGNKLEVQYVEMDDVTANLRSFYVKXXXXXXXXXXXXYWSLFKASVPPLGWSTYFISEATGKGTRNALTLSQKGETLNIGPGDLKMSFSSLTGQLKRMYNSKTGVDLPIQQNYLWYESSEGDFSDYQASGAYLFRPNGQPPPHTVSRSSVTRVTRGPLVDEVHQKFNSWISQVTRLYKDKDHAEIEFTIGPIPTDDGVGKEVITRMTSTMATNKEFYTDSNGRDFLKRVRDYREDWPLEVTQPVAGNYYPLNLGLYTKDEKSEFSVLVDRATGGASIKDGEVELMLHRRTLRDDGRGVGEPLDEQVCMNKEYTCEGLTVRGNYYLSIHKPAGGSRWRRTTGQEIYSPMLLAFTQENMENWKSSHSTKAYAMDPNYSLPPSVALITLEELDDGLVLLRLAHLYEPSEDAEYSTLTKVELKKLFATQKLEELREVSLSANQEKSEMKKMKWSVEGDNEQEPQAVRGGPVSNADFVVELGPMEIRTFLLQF
Structure (SMILES),inhibition [1],inhibition [2],solubility [3],Ki [4] [µM],IC50 [5] [µM],Activity [6],Ki [7] [µM]
COC[C@H]1O[C@@H]2O[C@H]3[C@H](OC)[C@@H](OC)[C@@H](O[C@H]4[C@H](OC)[C@@H](OC)[C@@H](O[C@H]5[C@H](OC)[C@@H](OC)[C@@H](O[C@H]6[C@H](OC)[C@@H](OC)[C@@H](O[C@H]7[C@H](OC)[C@@H](OC)[C@@H](O[C@H]8[C@H](OC)[C@@H](OC)[C@@H](O[C@H]1[C@H](OC)[C@H]2OC)O[C@@H]8COC)O[C@@H]7COC)O[C@@H]6COC)O[C@@H]5COCc1cn(CCCCCCN[C@@H]2[C@@H](O)[C@@H](O)[C@H](O)[C@H]5COC(=O)N52)nn1)O[C@@H]4COC)O[C@@H]3COC,inactive,inactive,Soluble,140 to 300,2.2,Dose-dependent effect,0.5 to 50
CCCCCCCCN[C@@H]1[C@@H](O)[C@@H](O)[C@H](O)[C@H]2COC(=O)N21,,,Soluble,260,26.8,Dose-dependent effect,3.2
[N-]=[N+]=NCCCCCCCCCN[C@@H]1[C@@H](O)[C@@H](O)[C@H](O)[C@H]2COC(=O)N21,inactive,inactive,Soluble,140 to 300,19.3,Dose-dependent effect,0.5 to 50
[N-]=[N+]=NCCCCCCN[C@@H]1[C@@H](O)[C@@H](O)[C@H](O)[C@H]2COC(=O)N21,inactive,inactive,Soluble,140 to 300,116,Dose-dependent effect,0.5 to 50
CC(C)(C)OC(=O)NCCCCCCCCCN[C@@H]1[C@@H](O)[C@@H](O)[C@H](O)[C@H]2COC(=O)N21,inactive,inactive,Soluble,140 to 300,30.7,Dose-dependent effect,0.5 to 50
CCCc1cn(CCCCCCN[C@@H]2[C@@H](O)[C@@H](O)[C@H](O)[C@H]3COC(=O)N32)nn1,inactive,inactive,Soluble,140 to 300,17.3,Dose-dependent effect,0.5 to 50
CO[C@@H]1[C@@H](OC)[C@H]2O[C@H]3[C@H](OC)[C@@H](OC)[C@@H](O[C@H]4[C@H](OC)[C@@H](OC)[C@@H](O[C@H]5[C@H](OC)[C@@H](OC)[C@@H](O[C@H]6[C@H](OC)[C@@H](OC)[C@@H](O[C@H]7[C@H](OC)[C@@H](OC)[C@@H](O[C@H]8[C@H](OC)[C@@H](OC)[C@@H](O[C@@H]1[C@@H](COCc1cn(CCCCCCN[C@@H]9[C@@H](O)[C@@H](O)[C@H](O)[C@H]%10COC(=O)N%109)nn1)O2)O[C@@H]8COCc1cn(CCCCCCN[C@@H]2[C@@H](O)[C@@H](O)[C@H](O)[C@H]8COC(=O)N82)nn1)O[C@@H]7COCc1cn(CCCCCCN[C@@H]2[C@@H](O)[C@@H](O)[C@H](O)[C@H]7COC(=O)N72)nn1)O[C@@H]6COCc1cn(CCCCCCN[C@@H]2[C@@H](O)[C@@H](O)[C@H](O)[C@H]6COC(=O)N62)nn1)O[C@@H]5COCc1cn(CCCCCCN[C@@H]2[C@@H](O)[C@@H](O)[C@H](O)[C@H]5COC(=O)N52)nn1)O[C@@H]4COCc1cn(CCCCCCN[C@@H]2[C@@H](O)[C@@H](O)[C@H](O)[C@H]4COC(=O)N42)nn1)O[C@@H]3COCc1cn(CCCCCCN[C@@H]2[C@@H](O)[C@@H](O)[C@H](O)[C@H]3COC(=O)N32)nn1,inactive,inactive,Soluble,140 to 300,0.44,,0.5 to 50
